Measurements: US11845807B2, “Method and carrier complexes for delivering molecules to cells” (priority 2003, dated 2023)
Square brackets hold non-standard residues; d marks the D form. Peptide text beside a SMILES is read from it. * marks the point of attachment. Dansyl = CN(C)c1cccc2c(S(=O)(=O)*)cccc12; Dmt = Cc1cc(O)cc(C)c1C[C@H](N)C(=O)O; 2Abz = Nc1ccccc1C(=O)O; Dap = NC[C@H](N)C(=O)O; Sar = CNCC(=O)O

Key:
Caco-2 cells [1] = experiment: Uptake of peptide-β-Gal conjugates into cells (β-gal staining); assay type: cell-based; details: 1 h at 37° C.
Source text: Conjugation of protein to [Dmt1]DALDA. was cross-linked to β-galactosidase (recombinant E. coli, Sigma-Aldrich) using a cross-linker SMCC (succinimidyl 4-(N-maleimidomethyl)yclohexane-1-carboxylate)(Pierce). […] Its maleimide end can then be conjugated to a sulfhydryl-containing compound to create a thioether linkage (Bioconjugate Techniques by Greg T. Hermanson, Academic Press, page 234-237). β-Gal contains abundant free sulfhydryl groups in its native state. The uptake of β-Gal provides a convenient read-out with the use of X-gal. […] This should result in “activated peptide.” The “activated peptide” was diluted 1:10 with phosphate buffer. 1 mg of β-Gal was added to 1 ml of the 1:10 “activated peptide” and mixed at 4° C. for either 2 h or overnight.
Assay for [Dmt1]DALDA-protein conjugate uptake into cells. […] Cells were then washed 4 times with PBS. The cells were then stained with β-gal staining set (Roche) for at least 2 h at 37° C. and examined under the microscope.
This should result in “activated peptide.” The “activated peptide” was diluted 1:10 with phosphate buffer. 1 mg of β-Gal was added to 1 ml of the 1:10 “activated peptide” and mixed at 4° C. for either 2 h or overnight.
Cells were then washed 4 times with phosphate buffer. The cells were then stained with β-gal staining set (Roche) for at least 2 h at 37° C. and examined under the microscope.

SH-SY5Y cells = experiment: Confocal laser scanning microscopy of fluorescent peptide uptake, SH-SY5Y cells; assay type: cell-based; details: 0.1 μM, 30 min at 4° C.
Protocol: Confocal Laser Scanning Microscopy. The uptake of aromatic-cationic peptides into cells was confirmed by confocal laser scanning microscopy (CLSM) using two fluorescent peptides, [Dmt^1,dnsDap^4]DALDA (Dmt-D-Arg-Phe-dnsDap-NH2, where dnsDap is β-dansyl-1-α-β-diamino-propionic acid) and [Dmt^1.atnDap^4]DALDA (Dmt-D-Arg-Phe-atnDap-NH2, where atn is β-anthraniloyl-L-α-β-diaminopropionic acid). Caco-2 cells or SH-SYSY cells were grown as described above and were plated on (35-mm) glass bottom dishes (MatTek, Ashland, Mass.) for 2 days. […] Cells were then washed three times with ice-cold HESS and covered with 200 μl of PBS, and microscopy was performed within 10 min at room temperature using a confocal laser scanning microscope with a C-Apochromat 63×/1.2 W torr objective (Nikon, Tokyo, Japan). Excitation/emission wavelengths were set at 340/520 nm for [Dmt^1,dnsDap^4]DALDA and 320/420 nm for [Dmt^1,atnDap^4]-DALDA, respectively. For optical sectioning in z-direction, 5 to 10 frames with […] were made.

Huh7 cells = experiment: Cell viability by trypan blue uptake; assay type: cell-based; details: 50 μl of 1 mM conjugate in 1 ml medium, 24 hours at 37° C.
Protocol: Trypan blue is only taken by cells with increased membrane permeability. Huh7 cells (1×10^6) were washed three times in DMEM, and 1 ml of fresh medium, or media containing 50 μl of 1 mM [Dmt^1]DALDA-SMCC conjugate, [D-Arg-Dmt-Lys-Phe-NH2]-SMCC conjugate, or [Phe^1]DALDA-SMCC conjugate, and incubated at 37° C. for 24 hours at 5% CO2. Cells were then washed three times with DMEM, and 1 ml of 0.4% trypan blue was added to the cells for 2 minutes. Excessive dye was removed by washing cells in cell medium and the cells were examined by light microscopy.

Caco-2 cells [2] = experiment: Assay for peptide uptake in Caco-2 cells; assay type: cell-based
Source text: Assay for Peptide Uptake.

Caco-2 cells [3] = experiment: Assay for peptide efflux from Caco-2 cells; assay type: cell-based
Protocol: Assay for Peptide Efflux from CaCo-2 Cells. […] Cells were then washed four times with 1 ml of ice-cold incubation solution to terminate uptake and then incubated with 0.5 ml of MEM for 1 h at either 37 or 4° C. to measure the efflux of peptide from cells to the incubation medium. The amount of radioactivity was determined in cell lysates and in the incubation medium.

[4] = Peptide translocation across Caco-2 monolayers (Transwell, apical-to-basolateral); assay type: in vitro ADME; details: Caco-2; apical-to-basolateral; read-out: apparent permeability coefficient
Protocol: (§1) Assay for Peptide Translocation across Caco-2 Monolayers. Monolayers of Caco-2 cells were prepared as described previously (Irie et al., J. Pharmacol. Exp. Ther. 2001, 298: 711-717), Caco-2 cells (2×10^5) were seeded on microporous membrane filters (24 mm, […]) inside Transwell cell culture chambers (Corning Glassworks, Corning, N.Y.). Each Transwell chamber was filled with 1.5 ml of medium in the apical compartment and 2.5 ml in the basolateral compartment. The cell monolayers were given fresh medium every 1 to 2 days and were used on day 28 for transport experiments.
(§2) The apparent permeability coefficient was calculated according to the following equation: Papp=X/(t·A·Co), where X/t is the rate of uptake in the receiver compartment, A is the diffusion area (4.72 cm^2), and Co is the initial concentration in the donor compartment.

Caco-2 monolayer = experiment: as above; assay type: in vitro ADME; details: 60 min
Protocol: as §1, §2

Caco-2 cells [5] = details: Terada et al. 1999; confirmed in this study (FIG. 2B); cited from earlier work
Caco-2 cells [6] = experiment: Confocal laser scanning microscopy of fluorescent peptide uptake, Caco-2 cells; assay type: cell-based; details: 0.1 μM, 15 min at 37° C.
Protocol: Confocal Laser Scanning Microscopy. The uptake of aromatic-cationic peptides into cells was confirmed by confocal laser scanning microscopy (CLSM) using two fluorescent peptides, [Dmt^1,dnsDap^4]DALDA (Dmt-D-Arg-Phe-dnsDap-NH2, where dnsDap is β-dansyl-1-α-β-diamino-propionic acid) and [Dmt^1.atnDap^4]DALDA (Dmt-D-Arg-Phe-atnDap-NH2, where atn is β-anthraniloyl-L-α-β-diaminopropionic acid). Caco-2 cells or SH-SYSY cells were grown as described above and were plated on (35-mm) glass bottom dishes (MatTek, Ashland, Mass.) for 2 days. The medium was then removed, and cells were incubated with 1 ml of HBSS containing 0.1 μM of the fluorescent peptide at either 4° C. or 37° C. for 15 min. Cells were then washed three times with ice-cold HESS and covered with 200 μl of PBS, and microscopy was performed within 10 min at room temperature using a confocal laser scanning microscope with a C-Apochromat 63×/1.2 W torr objective (Nikon, Tokyo, Japan). Excitation/emission wavelengths were set at 340/520 nm for [Dmt^1,dnsDap^4]DALDA and 320/420 nm for [Dmt^1,atnDap^4]-DALDA, respectively. For optical sectioning in z-direction, 5 to 10 frames with […] were made.

β-Gal with SMCC: β-Gal conjugated with SMCC alone, without peptide (control) [reference compound]
uptake of β-Gal into cells (blue cells) (Caco-2 cells [1]): did not enhance uptake

Cc1cc(O)cc(C)c1C[C@H](N)C(=O)N[C@H](CCCNC(=N)N)C(=O)N[C@@H](Cc1ccccc1)C(=O)N[C@@H](CNC(=O)c1ccccc1N)C(N)=O [[Dmt^1,atnDap^4]DALDA, Dmt-D-Arg-Phe-atnDap-NH2] (H-[Dmt][dR]F[Dap](2Abz)-NH2; N-terminus assumed)
internalization at 4° C. (SH-SY5Y cells): energy-independent non-endocytotic uptake mechanism

CCOC(=O)OC(=O)OCC [DEPC, diethylpyrocarbonate, reference compound]
trypan blue uptake (cell viability) (Huh7 cells): significant uptake of trypan blue

CN(CC(=O)O)C(=O)CN [Gly-Sar, reference compound] (H-Gly-[Sar]-OH)
effect of DEPC on uptake (Caco-2 cells [2]; 0.2 mM DEPC): significantly inhibited
effect of 4° C. on uptake (Caco-2 cells [2]; 4° C. versus 37° C.): completely abolished
time course of uptake (Caco-2 cells [2]; 37° C., 50 μM): continued to increase from 5 to 45 min
effect of temperature (4° C.) on efflux (Caco-2 cells [3]; 4° C. versus 37° C.): significantly reduced
peptide effluxed into medium (Caco-2 cells [3]; preloaded 1 h, 1 h efflux at 37° C.): 39%
Papp A→B [4]: 12.6 ×10⁻⁶ cm/s
percentage translocated from the apical to the basolateral side (Caco-2 monolayer): 11.9%
pH of optimal uptake (by PEPT1) (Caco-2 cells [5]): 6.0

β-Gal: β-galactosidase (recombinant E. coli, Sigma-Aldrich), protein cargo
uptake of β-Gal into cells (blue cells) (Caco-2 cells [1]): no uptake

N=C(N)NCCC[C@@H](NC(=O)[C@@H](N)Cc1ccccc1)C(=O)N[C@@H](Cc1ccccc1)C(=O)N[C@@H](CCCCN)C(N)=O [[Phe^1]DALDA, Phe-D-Arg-Phe-Lys-NH2] (H-F[dR]FK-NH2; N-terminus assumed)
trypan blue uptake (cell viability) (Huh7 cells): No increase in trypan blue uptake

Cc1cc(O)cc(C)c1C[C@H](N)C(=O)N[C@H](CCCNC(=N)N)C(=O)N[C@@H](Cc1ccccc1)C(=O)N[C@@H](CNS(=O)(=O)c1cccc2c(N(C)C)cccc12)C(N)=O [[Dmt^1,dnsDap^4]DALDA, Dmt-D-Arg-Phe-dnsDap-NH2] (H-[Dmt][dR]F[Dap](Dansyl)-NH2; N-terminus assumed)
intracellular distribution of fluorescence (Caco-2 cells [6]): diffuse throughout the cytoplasm with no apparent vesicular distribution
nuclear localisation of fluorescence (Caco-2 cells [6]): completely excluded from the nucleus
intracellular distribution of fluorescence (Caco-2 cells [6]; dnsDap^4]DALDA): diffuse throughout the cytoplasm
